Like-named read-outs stand apart in the source and are kept apart here. Marks after values point to notes of the source that are not given here.
How the values were obtained:
[1] = test system: cancer; experiment: Anti-cancer activity (test not specified)
[2] = test system: P388/0 murine leukemia; settings: Q1D × 1 (1)
[3] = test system: P388/BCNU (carmustine-resistant) leukemia; experiment: Antitumor activity against IP-implanted P388/BCNU leukemia; settings: Q1D × 1 (1)
[4] = test system: P388/CPA (cyclophosphamide-resistant) leukemia; assay type: in vivo, CD2F1 female mice; settings: Q1D × 1 (1)
[5] = test system: human MX-1 mammary tumor (ic, 10^6 cells); experiment: In vivo antitumor activity, i.c.-implanted MX-1 xenograft; settings: for Median % ILS (dying mice only) / Tumor-Free-Surv/Total: Days 1-5; for activity against i.c.-implanted tumor (in words): in comparison to PEN and DM-PEN; for Median % ILS (based on dying mice only) / Survivors: optimal doses (LD10 or less), schedule QD1-5, administered LP.
[6] = test system: human MX-1 mammary tumor (sc, 30-40 mg fragments); experiment: In vivo antitumor activity, s.c.-implanted MX-1 xenograft; set-up: species or system Athymic mice (Ncr-nu); settings: for antitumor activity (in words): MX-1 implanted s.c. or i.c.; for IP dosage marked (LD50): Days 12-16, sc MX-1 bearing mice
[7] = test system: P388/L-PAM (melphalan-resistant) leukemia; settings: Q1D × 1 (1)
[8] = oral (gavage) 135 mg/kg/dose, Days 13-17
[9] = oral (gavage) 135 mg/kg/dose, Days 12-16

CCOc1nc(C(Cl)(Cl)Cl)c(Cl)c(OCC)c1Cl [3,5-dichloro-4,6-diethoxy-2-(trichloromethyl)pyridine]
anti-cancer activity (in words) [1]: active anti-cancer activity

CCOc1c(Cl)c(OC)nc(C(Cl)(Cl)Cl)c1Cl [3,5-dichloro-4-ethoxy-6-methoxy-2-(trichloromethyl)pyridine]
anti-cancer activity (in words) [1]: active anti-cancer activity

O=NN(CCCl)C(=O)NCCCl [BCNU (carmustine), carmustine]
50-DAY SURV./TOTAL ([2]; IP 20.0 mg/kg/dose): 3/6
50-DAY SURV./TOTAL ([2]; IP 30.0 mg/kg/dose): 6/6
50-DAY SURV./TOTAL ([3]; IP 20.0 mg/kg/dose): 0/6
% ILS ([3]; IP 20.0 mg/kg/dose): 0%
50-DAY SURV./TOTAL ([3]; IP 30.0 mg/kg/dose): 0/6
% ILS ([3]; IP 30.0 mg/kg/dose): −6%
MEDIAN DAY OF DEATH ([3]; IP 30.0 mg/kg/dose): 8.5

O=P1(N(CCCl)CCCl)NCCCO1 (centres unmarked) [CPA (cycloposphamide), cyclophosphamide]
50-DAY SURV./TOTAL ([4]; IP 175.0 mg/kg/dose): 0/6
% ILS ([4]; IP 175.0 mg/kg/dose): +9%
APPROX. NET LOG10 CHANGE IN TUMOR BURDEN AT END OF Rx ([4]; IP 175.0 mg/kg/dose): −0.6
50-DAY SURV./TOTAL ([4]; IP 265.0 mg/kg/dose): 0/6
% ILS ([4]; IP 265.0 mg/kg/dose): +27%
APPROX. NET LOG10 CHANGE IN TUMOR BURDEN AT END OF Rx ([4]; IP 265.0 mg/kg/dose): −1.7
50-DAY SURV./TOTAL ([2]; IP 175.0 mg/kg/dose): 1/6
% ILS ([2]; IP 175.0 mg/kg/dose): +172%
APPROX. NET LOG10 CHANGE IN TUMOR BURDEN AT END OF Rx ([2]; IP 175.0 mg/kg/dose): ca −6.8
50-DAY SURV./TOTAL ([2]; IP 265.0 mg/kg/dose): 6/6

COc1nc(C(Cl)(Cl)Cl)c(Cl)c(OC(=O)COC(C)=O)c1Cl [DM-AA-PEN]
Median % ILS (dying mice only) ([5]; IP 135 mg/kg/dose): +67%
Tumor-Free-Surv/Total ([5]; IP 135 mg/kg/dose): 0/5
Median % ILS (dying mice only) ([5]; oral (gavage) 135 mg/kg/dose): +115%
Tumor-Free-Surv/Total ([5]; oral (gavage) 135 mg/kg/dose): 2/5

C=CC(=O)Oc1c(Cl)c(OC)nc(C(Cl)(Cl)Cl)c1Cl [DM-AC-PEN]
T-C ([6]; IP 60 mg/kg/dose, Days 12-16): 30.0 days
Tumor-Free-Surv/Total ([6]; IP 60 mg/kg/dose, Days 12-16): 1/5
Median % ILS (dying mice only) ([5]; IP 60 mg/kg/dose): +55%
Tumor-Free-Surv/Total ([5]; IP 60 mg/kg/dose): 0/5

COc1nc(C(Cl)(Cl)Cl)c(Cl)c(OC(=O)c2ccccc2)c1Cl [DM-B-PEN]
T-C ([6]; IP 135 mg/kg/dose, Days 11-15): >42.7 days
Tumor-Free-Surv/Total ([6]; IP 135 mg/kg/dose, Days 11-15): 5/5
antitumor activity (in words) ([6]; i.p. administration): high activity
antitumor activity (in words) ([6]; oral drug treatment): low antitumor activity
oral absorption (in words) ([6]; inferred from MX-1 results (s.c. or i.c.), oral treatment): oral absorption was poor
T-C [6, 8]: -1.4 days
Tumor-Free-Surv/Total [6, 8]: 0/5
Median % ILS (dying mice only) ([5]; IP 335 mg/kg/dose): +84%
Tumor-Free-Surv/Total ([5]; IP 335 mg/kg/dose): 0/5
Median % ILS (dying mice only) ([5]; oral (gavage) 135 mg/kg/dose): +12%
Tumor-Free-Surv/Total ([5]; oral (gavage) 135 mg/kg/dose): 0/5

COc1nc(C(Cl)(Cl)Cl)c(Cl)c(OC(=O)CBr)c1Cl [DM-BA-PEN]
T-C ([6]; IP 135 mg/kg/dose, Days 12-16): >41.0 days
Tumor-Free-Surv/Total ([6]; IP 135 mg/kg/dose, Days 12-16): 2/5

COc1nc(C(Cl)(Cl)Cl)c(Cl)c(OC(=O)CCl)c1Cl [DM-CA-PEN]
T-C ([6]; IP 60 mg/kg/dose, Days 12-16): >41.0 days
Tumor-Free-Surv/Total ([6]; IP 60 mg/kg/dose, Days 12-16): 3/5
T-C [6, 9]: >41.0 days
Tumor-Free-Surv/Total [6, 9]: 5/5
Median % ILS (dying mice only) ([5]; oral (gavage) 135 mg/kg/dose): +84%
Tumor-Free-Surv/Total ([5]; oral (gavage) 135 mg/kg/dose): 2/5

COc1nc(C(Cl)(Cl)Cl)c(Cl)c(OC(=O)c2ccc(CCl)cc2)c1Cl [DM-CMB-PEN]
Median % ILS (dying mice only) ([5]; IP 90 mg/kg/dose): +73%
Tumor-Free-Surv/Total ([5]; IP 90 mg/kg/dose): 0/5

COC(=O)CCC(=O)Oc1c(Cl)c(OC)nc(C(Cl)(Cl)Cl)c1Cl [DM-CMP-PEN]
T-C ([6]; IP 135 mg/kg/dose, Days 11-15): >42.7 days
Tumor-Free-Surv/Total ([6]; IP 135 mg/kg/dose, Days 11-15): 3/5
T-C [6, 8]: >38.5 days
Tumor-Free-Surv/Total [6, 8]: 2/5
Median % ILS (dying mice only) ([5]; IP 90 mg/kg/dose): +87%
Tumor-Free-Surv/Total ([5]; IP 90 mg/kg/dose): 1/5
Median % ILS (dying mice only) ([5]; oral (gavage) 90 mg/kg/dose): +76%
Tumor-Free-Surv/Total ([5]; oral (gavage) 90 mg/kg/dose): 1/5

COc1nc(C(Cl)(Cl)Cl)c(Cl)c(OC(=O)C(Cl)Cl)c1Cl [DM-DCA-PEN]
T-C ([6]; IP 135 mg/kg/dose, Days 12-16): >38.6 days
Tumor-Free-Surv/Total ([6]; IP 135 mg/kg/dose, Days 12-16): 2/5

COc1nc(C(Cl)(Cl)Cl)c(Cl)c(OC(=O)c2ccco2)c1Cl [DM-F-PEN]
T-C ([6]; IP 90 mg/kg/dose, Days 12-16): >41.2 days
Tumor-Free-Surv/Total ([6]; IP 90 mg/kg/dose, Days 12-16): 5/5
Median % ILS (dying mice only) ([5]; IP 135 mg/kg/dose): +108%
Tumor-Free-Surv/Total ([5]; IP 135 mg/kg/dose): 2/5
activity against i.c.-implanted tumor (in words) [5]: significant activity
Median % ILS (based on dying mice only) [5]: 108^c %
Survivors [5]: 2/5

COc1nc(C(Cl)(Cl)Cl)c(Cl)c(OC(=O)CI)c1Cl [DM-IA-PEN]
T-C ([6]; IP 60 mg/kg/dose, Days 12-16): 20.3 days
Tumor-Free-Surv/Total ([6]; IP 60 mg/kg/dose, Days 12-16): 1/5
IP dosage marked (LD50) [6]: 60 (LD50) mg/kg/dose

COc1nc(C(Cl)(Cl)Cl)c(Cl)c(OC(=O)c2ccncc2)c1Cl [DM-IN-PEN]
T-C ([6]; IP 90 mg/kg/dose, Days 12-16): >38.6 days
Tumor-Free-Surv/Total ([6]; IP 90 mg/kg/dose, Days 12-16): 3/5
IP dosage marked (LD50) [6]: 90 (LD50) mg/kg/dose

COCC(=O)Oc1c(Cl)c(OC)nc(C(Cl)(Cl)Cl)c1Cl [DM-MA-PEN]
T-C [6, 9]: >41.0 days
Tumor-Free-Surv/Total [6, 9]: 5/5
Median % ILS (dying mice only) ([5]; IP 90 mg/kg/dose): +125%
Tumor-Free-Surv/Total ([5]; IP 90 mg/kg/dose): 1/5
activity against i.c.-implanted tumor (in words) [5]: significant activity
Median % ILS (based on dying mice only) [5]: 126^a %
Survivors [5]: 1/5
Median % ILS (dying mice only) ([5]; oral (gavage) 90 mg/kg/dose): +110%
Tumor-Free-Surv/Total ([5]; oral (gavage) 90 mg/kg/dose): 1/5

COc1nc(C(Cl)(Cl)Cl)c(Cl)c(OC(=O)c2ccc([N+](=O)[O-])cc2)c1Cl [DM-NB-PEN]
T-C ([6]; IP 135 mg/kg/dose, Days 12-16): >38.6 days
Tumor-Free-Surv/Total ([6]; IP 135 mg/kg/dose, Days 12-16): 5/5

COc1nc(C(Cl)(Cl)Cl)c(Cl)c(OC(=O)c2ccc([N+](=O)[O-])o2)c1Cl [DM-NF-PEN]
T-C ([6]; IP 90 mg/kg/dose, Days 12-16): >41.2 days
Tumor-Free-Surv/Total ([6]; IP 90 mg/kg/dose, Days 12-16): 4/5
Median % ILS (dying mice only) ([5]; IP 135 mg/kg/dose): +59%
Tumor-Free-Surv/Total ([5]; IP 135 mg/kg/dose): 0/5

CCCCCCCC(=O)Oc1c(Cl)c(OC)nc(C(Cl)(Cl)Cl)c1Cl [DM-O-PEN]
Median % ILS (dying mice only) ([5]; IP 90 mg/kg/dose): +121%
Tumor-Free-Surv/Total ([5]; IP 90 mg/kg/dose): 0/5
activity against i.c.-implanted tumor (in words) [5]: significant activity
Median % ILS (based on dying mice only) [5]: 121^b %
Survivors [5]: 0/5

COc1nc(C(Cl)(Cl)Cl)c(Cl)c(OC(=O)C(C)(C)C)c1Cl [DM-P-PEN]
T-C ([6]; IP 135 mg/kg/dose, Days 11-15): >42.7 days
Tumor-Free-Surv/Total ([6]; IP 135 mg/kg/dose, Days 11-15): 5/5
T-C [6, 8]: 0.9 days
Tumor-Free-Surv/Total [6, 8]: 0/5
Median % ILS (dying mice only) ([5]; IP 135 mg/kg/dose): +64%
Tumor-Free-Surv/Total ([5]; IP 135 mg/kg/dose): 0/5
Median % ILS (dying mice only) ([5]; oral (gavage) 135 mg/kg/dose): +20%
Tumor-Free-Surv/Total ([5]; oral (gavage) 135 mg/kg/dose): 0/5

COc1nc(C(Cl)(Cl)Cl)c(Cl)c(OC(=O)Cc2cccs2)c1Cl [DM-TA-PEN]
T-C ([6]; IP 90 mg/kg/dose, Days 12-16): >41.2 days
Tumor-Free-Surv/Total ([6]; IP 90 mg/kg/dose, Days 12-16): 3/5
Median % ILS (dying mice only) ([5]; IP 90 mg/kg/dose): +75%
Tumor-Free-Surv/Total ([5]; IP 90 mg/kg/dose): 0/5

COc1nc(C(Cl)(Cl)Cl)c(Cl)c(OC(=O)c2cccs2)c1Cl [DM-TC-PEN]
T-C ([6]; IP 90 mg/kg/dose, Days 12-16): >41.2 days
Tumor-Free-Surv/Total ([6]; IP 90 mg/kg/dose, Days 12-16): 4/5
Median % ILS (dying mice only) ([5]; IP 135 mg/kg/dose): +100%
Tumor-Free-Surv/Total ([5]; IP 135 mg/kg/dose): 0/5
activity against i.c.-implanted tumor (in words) [5]: significant activity
Median % ILS (based on dying mice only) [5]: 100^d %
Survivors [5]: 0/5

COc1nc(C(Cl)(Cl)Cl)c(Cl)c(OC(=O)c2c(Cl)cc(Cl)cc2Cl)c1Cl [DM-TCB-PEN]
Median % ILS (dying mice only) ([5]; IP 135 mg/kg/dose): +92%
Tumor-Free-Surv/Total ([5]; IP 135 mg/kg/dose): 1/5

N[C@@H](Cc1ccc(N(CCCl)CCCl)cc1)C(=O)O [L-PAM (melphalan), melphalan]
50-DAY SURV./TOTAL ([2]; IP 15.0 mg/kg/dose): 6/6
50-DAY SURV./TOTAL ([2]; IP 20.0 mg/kg/dose): 5/6
% ILS ([2]; IP 20.0 mg/kg/dose): +208%
APPROX. NET LOG10 CHANGE IN TUMOR BURDEN AT END OF Rx ([2]; IP 20.0 mg/kg/dose): ca −6.8
MEDIAN DAY OF DEATH ([2]; IP 20.0 mg/kg/dose): 34.0
50-DAY SURV./TOTAL ([7]; IP 15.0 mg/kg/dose): 0/6
% ILS ([7]; IP 15.0 mg/kg/dose): +14%
APPROX. NET LOG10 CHANGE IN TUMOR BURDEN AT END OF Rx ([7]; IP 15.0 mg/kg/dose): −1.8
MEDIAN DAY OF DEATH ([7]; IP 15.0 mg/kg/dose): 18.0
50-DAY SURV./TOTAL ([7]; IP 20.0 mg/kg/dose): 0/6
% ILS ([7]; IP 20.0 mg/kg/dose): +14%
APPROX. NET LOG10 CHANGE IN TUMOR BURDEN AT END OF Rx ([7]; IP 20.0 mg/kg/dose): −1.8
MEDIAN DAY OF DEATH ([7]; IP 20.0 mg/kg/dose): 18.0

— US6495571B1, “Pyridine compounds, use and preparation thereof” (Southern Research Institute, priority 1999, dated 2002)
